Experimental findings from article PMC5441103, “Antiviral activity of phenanthrenes from the medicinal plant Bletilla striata against influenza A virus” (BMC Complementary and Alternative Medicine, 2017) are described below.

The test system of series [1] is influenza virus A/Sydney/5/97 (H3N2). The series is classed as in vivo. The conditions noted are these: for -log2 HA titer (mean ± SD): 9-day-old embryonated hen eggs, 100 EID50, 34 °C 48 h, allantoic fluid.
In series [2] the test system is influenza A/Sydney/5/97 (H3N2).
Series [3] relates to influenza viral matrix protein mRNA. The class given is cell-based, influenza virus.
A further series has as its system MDCK cells. In words: Cytotoxicity to MDCK cells (MTS-based assay). The series is classed as cell-based, canine. The note with it: 48 h, read-out: CC50 (50% cytotoxic concentration). As to the method:
(§1) An MTS-based assay was performed to evaluate the cytotoxic effects of the test compounds on MDCK cells. Approximately 5 × 10^4 cells/well were seeded in 96-well microplates in MEM with 10% FBS at 37 °C in a humidified 5% CO2 incubator. When the monolayer was confluent, the cells were washed twice with PBS and then treated with compounds diluted in serum-free MEM. After incubation at 37 °C for 48 h, 20 μL of MTS was added to each well, and the cells were incubated for 2 h. The absorbance at 490 nm was determined using a microplate reader. The cell viability was calculated using the following formula: cell viability (%) = (drug treatment – background)/(control – background) × 100%. The half-maximal cytotoxic concentration (CC50) of the compounds was defined as the concentration that reduced the A490 of compound-treated cells to 50% of that of untreated cells.
(In general: Formazan colour is commonly taken as a measure of viable cells.)

For the next series, the target named is neuraminidase (NA) (Influenza A virus, UniProt Q80DL0). The note with it: for IC50: read-out: NA inhibitory activity IC50.
Series [4] in a line: Cytotoxicity to MDCK cells (MTS-based assay). The series is classed as cell-based, canine. The conditions noted are these: dog, read-out: CC50 (50% cytotoxic concentration). The protocol:
as §1

Series [5] concerns influenza A/Sydney/5/97 (H3N2). In words: in vitro. The conditions noted are these: dog, MDCK cells.
The subject of the next series is hemagglutinin (HA). In words: Hemagglutination inhibition assay (guinea pig RBC). The conditions noted are these: 4 HAU virus, 1.5% guinea pig RBC.
Series [6] deals with influenza A/Sydney/5/97 (H3N2). Briefly: microbe, parasite or virus in culture. The conditions noted are these: H3N2, MDCK.
Where [7] appears, read: read-out: Simultaneous treatment IC50.
Setting [8] is: Post-treatment SI (selective index; CC50mean/IC50mean), post-treatment.
Where [9] appears, read: Simultaneous treatment SI (selective index; CC50mean/IC50mean), simultaneous treatment.
Where [10] appears, read: 72 h, read-out: Simultaneous treatment IC50.

Where “and” joins values, the source holds several entries; their conditions need not be identical. Identical values can stand only once. Like-named read-outs stand apart in the source and are kept apart here.

Procedure for hemagglutinin (HA): The hemagglutination inhibition assay was used to study whether the compound could block the SA-containing receptors. The phenanthrenes from B. striata and oseltamivir phosphate were all tested Fresh guinea pig blood was collected at the Laboratory Animal Research Center of the Zhejiang Chinese Medical University, supplemented with 1.6% sodium citrate in sterile water. Then, red blood cells (RBC) were separated by centrifugation (800×g for 10 min at room temperature), washed three times with sterile PBS, and then suspended at a concentration of 1.5%. The least number of virus particles able to agglutinate the guinea pig RBC was determined in a serial virus dilution as four hemagglutination units (HAU). PBS instead of the compounds was used as the hemagglutinating positive control and no-virus RBC as the hemagglutinating negative control. Then, 50 μL of the compounds in serial twofold dilutions in PBS were mixed with 50 μL of 4 HAU influenza virus suspension, incubated for 1 h at 37 °C, mixed with an equal volume of 1.5% guinea pig RBC suspension for 1 h at room temperature, and then monitored for agglutination [10, 11].
Procedure for neuraminidase (NA): The neuraminidase inhibition assay was used to evaluate the effects of each compound on the neuraminidase activity of the influenza virus, according to the instructions of the Neuraminidase Inhibitors Screen Kit (Beyotime, China). Inhibition = [(C− S) / (C − C 0)] × 100%, where C is the fluorescence of the control (enzyme, buffer, and substrate) after 30 min of incubation, and C 0 is the fluorescence of the control (buffer and substrate). S is the fluorescence of the tested samples (enzyme, sample solution, and substrate) after incubation. Standard curves were made by plotting the percentage of fluorescence inhibition relative to the activity of virus controls against the log2 of concentrations. In addition, 10 μg/mL oseltamivir phosphate was used as the positive control. Then, 10 μL of NA in 70 μL of reaction buffer was mixed with equal volumes of twofold dilutions of the compounds. After a 2-min incubation at 37 °C, equal volumes (10 μL) of the substrate solution [2-(4-methylumbelliferyl)-α-D-N-acetylneuraminic acid sodium (4-MU-NANA)] were added, and the mixtures were further incubated for 30 min at 37 °C. The fluorescence intensity was measured using a fluorescence plate reader at an excitation wavelength of 322 nm and an emission wavelength of 450 nm. The 50% inhibitory concentration (IC50) was calculated by regression analysis with r ^2 ≥ 0.9, representing the mean values of three independent experiments [13, 29].

For the compound “2,2′–dyhydroxyl-4,4′,7,7′-9′,10′-dihydro-1,6′-di-phenanthrene [Compound 11]”, the “Inhibition (%)” value in series [1] (in vivo) is on record as 0.00%. The IC50 – broadly, the point on the concentration scale where inhibition reaches its midpoint – in [2] (read-out: Post-treatment IC50) was determined as 35.2 ± 3.7 µM; in series [2] (setting [7]), 38.6 ± 2.9 µM. In addition, the “Matrix protein mRNA transcription (normalized to GAPDH)” value in series [3] is recorded as “stronger inhibitory effect”.
As to `COc1cc(O)cc2c1-c1ccc(O)cc1CC2` [Compound 1, 2,7-dyhydroxyl-4-methoxy-9,10-dihydro-phenanthrene], the CC50 with MDCK cells came to 201 ± 18.6 µM. In addition, in series [2], the “Post-treatment IC50” value is “- (The results showed that antiviral effects against A/Sydney/5/97(H3N2) were less than 50% inhibition)” and the “Simultaneous treatment IC50” value was “- (The results showed that antiviral effects against A/Sydney/5/97(H3N2) were less than 50% inhibition)”. Also, the IC50 at neuraminidase (NA) was found to be 72.6 ± 6.5 µM. In addition, the “Matrix protein mRNA transcription (normalized to GAPDH)” value in [3] is “stronger inhibitory effect”.
Regarding `COc1cc(O)c2c(ccc3cc(O)ccc32)c1-c1c(OC)cc(O)c2c1ccc1cc(O)ccc12` [Compound 6, 4,4′,7,7′-tetrahydroxy-2,2′-dimethoxy-1,1′-di-phenanthrene], the CC50 in the series with MDCK cells came out at 106 ± 21.2 µM. Moreover, in series [2], the “Post-treatment SI (selective index; CC50mean/IC50mean)” value worked out at 2.8. Further, in [2], the “Simultaneous treatment SI (selective index; CC50mean/IC50mean)” value is given as 3.1. Further, the IC50 came out at 37.3 ± 3.2 µM in series [2] (read-out: Post-treatment IC50), 33.8 ± 2.7 µM in series [2] (setting [7]) and 16.1 ± 2.6 µM at neuraminidase (NA). In addition, the “Matrix protein mRNA transcription (normalized to GAPDH)” value in series [3] is given as “stronger inhibitory effect”.
Regarding `COc1ccc2c(ccc3c(-c4c(O)c(OC)cc5c4CCc4cc(O)cc(OC)c4-5)c(O)cc(OC)c32)c1` [Compound 3, 2,2′,7′-trihydroxy-3′,4,5′,7-tetramethoxy-9′,10′-dihydro-1,1′-di-phenanthrene], in the series with MDCK cells, the CC50 is 50.3 ± 6.2 µM. The “Post-treatment SI (selective index; CC50mean/IC50mean)” value in series [2] came to 2.2. The “Simultaneous treatment SI (selective index; CC50mean/IC50mean)” value in series [2] is 2.5. In addition, the values for the IC50 (in series [2] (read-out: Post-treatment IC50); in [2] (setting [7]); on neuraminidase (NA)) were 22.6 ± 1.8 µM, 20.4 ± 3.2 µM and 16.8 ± 1.6 µM, respectively. In addition, the “Matrix protein mRNA transcription (normalized to GAPDH)” value in series [3] is “stronger inhibitory effect”.
For `CCOC(=O)C1=C[C@@H](OC(CC)CC)[C@H](NC(C)=O)[C@@H](N)C1` [Oseltamivir, reference compound], the CC50 at 48 h in series [4] was 599 ± 62.1 µM. Further, in [1] (0.01 mmol/egg), the “-log2 HA titer (mean ± SD)” value was found to be 0.00 ± 0.00. Also, the “Inhibition (%)” value in series [1] (0.01 mmol/egg, embryonated hen eggs, 100 EID50, 48 h) stood at 100.00%. Besides, the selectivity ratio at 72 h amounted to 665 in [5] (setting [8]) and 122 in [5] (setting [9]). In the series with hemagglutinin (HA), the “Inhibition of hemagglutination by the influenza virus” value is “could not inhibit hemagglutination”. In addition, the IC50 in [6] (setting [10]) amounted to 4.9 ± 0.9 µM; in [6] (read-out: Post-treatment IC50), 0.9 ± 0.2 µM.
As to `COc1cc(O)c2c(ccc3cc(O)ccc32)c1-c1c(OC)cc(O)c2c1ccc1c(OC)cccc12` [Compound 5, 4,4′,7′-trihydroxy-2,2′,8,-trimethoxy-1,1′-di-phenanthrene], the CC50 in the series on MDCK cells was determined as 96.8 ± 15.6 µM. Moreover, the “Inhibition (%)” value in [1] (in vivo) is 0.00% and 6.90% and 3.45%. For the same compound, in [2], the “Post-treatment IC50” value is on record as “- (The results showed that antiviral effects against A/Sydney/5/97(H3N2) were less than 50% inhibition)” and the “Simultaneous treatment IC50” value was “- (The results showed that antiviral effects against A/Sydney/5/97(H3N2) were less than 50% inhibition)”. Further, the “NA inhibitory activity IC50” value at neuraminidase (NA) was “- (key: -: Inhibitory effect on the NA was less than 50%.)”.
For `COc1cc(O)c2c(ccc3c(OC)c(O)ccc32)c1-c1c(OC)cc(O)c2c1ccc1c(OC)c(O)ccc12` [Compound 4, 4,4′,7,7′-tetrahydroxy-2,2′,8,8′-tetramethoxy-1,1′-di-phenanthrene], the CC50 in the series with MDCK cells turned out to be 80 ± 20.1 µM. The “Post-treatment SI (selective index; CC50mean/IC50mean)” value in series [2] was 4.3. The “Simultaneous treatment SI (selective index; CC50mean/IC50mean)” value in series [2] is listed as 5.5. The IC50 amounted to 18.4 ± 3.1 µM in series [2] (read-out: Post-treatment IC50), 14.6 ± 2.4 µM in series [2] (setting [7]) and 21.7 ± 2.9 µM on neuraminidase (NA). In series [3], the “Matrix protein mRNA transcription (normalized to GAPDH)” value is “most efficient, even more powerful than oseltamivir”.
As to `COc1cc(O)c2c(c1)CCc1cccc(O)c1-2` [Compound 9, 4,5-dyhydroxyl-2-methoxy-9,10-dihydro-phenanthrene], the CC50 in the series on MDCK cells stood at 160 ± 20.4 µM. Also, in series [2], the “Post-treatment IC50” value is “- (The results showed that antiviral effects against A/Sydney/5/97(H3N2) were less than 50% inhibition)” and the “Simultaneous treatment IC50” value is “- (The results showed that antiviral effects against A/Sydney/5/97(H3N2) were less than 50% inhibition)”. Moreover, the “NA inhibitory activity IC50” value at neuraminidase (NA) is listed as “- (key: -: Inhibitory effect on the NA was less than 50%.)”. Further, in series [3], the “Matrix protein mRNA transcription (normalized to GAPDH)” value was “stronger inhibitory effect”.
Consider `COc1cc(O)c2c(ccc3cc(O)ccc32)c1-c1c(OC)cc(O)c2c1ccc1c(OC)c(O)ccc12` [Compound 8, 4,4′,7,7′-tetrahydroxy-2,2′,8-trimethoxy-1,1′-di-phenanthrene], for which the CC50 with MDCK cells came to 111 ± 17.3 µM. Also, in [2], the “Post-treatment IC50” value is “- (The results showed that antiviral effects against A/Sydney/5/97(H3N2) were less than 50% inhibition)” and the “Simultaneous treatment IC50” value is “- (The results showed that antiviral effects against A/Sydney/5/97(H3N2) were less than 50% inhibition)”. For the same compound, the “NA inhibitory activity IC50” value on neuraminidase (NA) is on record as “- (key: -: Inhibitory effect on the NA was less than 50%.)”.
Regarding `COc1ccc2c(ccc3c(-c4c(O)cc(OC)c5c4CCc4cc(O)ccc4-5)c(O)cc(OC)c32)c1` [Compound 2, 2,2,7′-trihydroxy-4,4′,7-trimethoxy-9′,10′-dihydro-1,1′-diphenanthrene], the CC50 in the series with MDCK cells worked out at 67.9 ± 13.1 µM. For the same compound, in [2], the “Post-treatment SI (selective index; CC50mean/IC50mean)” value is reported as 2.2 and the “Simultaneous treatment SI (selective index; CC50mean/IC50mean)” value is recorded as 2.3. Moreover, the IC50 in series [2] (read-out: Post-treatment IC50) was 31.4 ± 2.1 µM. The IC50 in series [2] (setting [7]) came out at 28.6 ± 4.3 µM. Also, the “NA inhibitory activity IC50” value on neuraminidase (NA) is “- (key: -: Inhibitory effect on the NA was less than 50%.)”. In addition, the “Matrix protein mRNA transcription (normalized to GAPDH)” value in [3] is reported as “stronger inhibitory effect”.
Regarding `COc1ccc2c(ccc3c(-c4c(OC)cc(O)c5c4ccc4cc(O)ccc45)c(OC)cc(O)c32)c1` [Compound 7, 4,4′,7-trihydroxy-2,2′,7′-trimethoxy-1,1′-di-phenanthrene], the CC50 with MDCK cells was 130 ± 15.6 µM. For the same compound, the “Inhibition (%)” value in series [1] (in vivo) is 0.00%. Also, in [2], the “Post-treatment SI (selective index; CC50mean/IC50mean)” value came to 4.1 and the “Simultaneous treatment SI (selective index; CC50mean/IC50mean)” value turned out to be 4.5. Further, the IC50 in [2] (read-out: Post-treatment IC50) was determined as 31.2 ± 2.2 µM. Besides, the IC50 in series [2] (setting [7]) is 28.5 ± 2.8 µM. Moreover, on neuraminidase (NA), the “NA inhibitory activity IC50” value is listed as “- (key: -: Inhibitory effect on the NA was less than 50%.)”. In addition, the “Matrix protein mRNA transcription (normalized to GAPDH)” value in series [3] is reported as “stronger inhibitory effect”.
As for `COc1cc(O)cc2ccc3cc(O)ccc3c12` [Compound 12, 2,7-dyhydroxyl-4-methoxyphenanthrene], in the series with MDCK cells, the CC50 was 116 ± 16.8 µM. In series [2], the “Post-treatment IC50” value was “- (The results showed that antiviral effects against A/Sydney/5/97(H3N2) were less than 50% inhibition)” and the “Simultaneous treatment IC50” value is “- (The results showed that antiviral effects against A/Sydney/5/97(H3N2) were less than 50% inhibition)”. For the same compound, the “NA inhibitory activity IC50” value at neuraminidase (NA) is “- (key: -: Inhibitory effect on the NA was less than 50%.)”.
On to `COc1ccc2c(ccc3cc(O)cc(OC)c32)c1` [Compound 10, 2-hydroxyl-4,7-dimethoxyphenanthrene], for which, in series [4], the CC50 at 48 h was 142 ± 25 µM. Besides, the “-log2 HA titer (mean ± SD)” value was found to be 6.00 ± 0.71 in series [1] (0.04 mmol/egg) and 3.20 ± 0.40 in [1] (0.08 mmol/egg). The “Inhibition (%)” value is 0.00% in [1] (0.04 mmol/egg, embryonated hen eggs, 100 EID50, 48 h); 44.8% and 44.83% in [1] (0.08 mmol/egg, embryonated hen eggs, 100 EID50, 48 h). Also, the figures for the selectivity ratio at 72 h in [5] (setting [8]) and in series [5] (setting [9]) were 3.4 and 3.3, respectively. Besides, the “Matrix protein mRNA transcription (normalized to GAPDH)” value in series [3] is given as “stronger inhibitory effect”. Also, the IC50 in [6] (setting [10]) came to 43.3 ± 5.3 µM; in series [6] (read-out: Post-treatment IC50), 42.3 ± 3.9 µM.
